Measurements reported in patent publication US20100093643A1 (priority 2006, published 2010).
Several values for one entry are separate records, joined by “and”; a condition that tells them apart may be missing. Equal values may be shown once. Read-outs that look alike come from different tables or passages of the source.

What was measured:
CD-1 male mice = test: Analgesic activity in vivo, hot plate method; parameters: species or system mouse
Procedure: Male Swiss albino mice (CD1), weighing 20-22 g were used throughout the study. The animals were housed in solid bottom polycarbonate cages with access to standard laboratory diet (Laboratory Rodent Diet PK-120) and tap water ad libitum, under controlled environmental conditions (temperature:18-26° C., 8 a.m. to 8 p.m. light-dark cycle). Mice were tested only once.
The Hot-plate-meter represents the thermostatic controllable, electro-heated up surface limited by transparent walls (L: 25 cm, W: 25 cm, H: 35 cm). The forward panel of the device is equipped by buttons for the control of time and a temperature mode (Columbus Instruments).
The i.v. administration was performed via tail vein as a bolus injection. The doses for all animals were calculated on the basis of the last value of the individual body weight.
The animals accurately were placed on the preheated hot plate (55±0.5° C.) after i.v. injection of saline or peptides and the latencies to first paw licking and first jumping were measured. The other behavioral reactions were ignored. The animals were removed from a hot surface after the first jumping. A cut-off time of 180 s was used to avoid tissue damage.
To evaluate the hot-plate test responses, the control latencies (t0) and test latencies (t1) were determined after injection of saline or peptides, respectively. The percentage of the maximal possible effect (% MPE) was calculated as % MPE=(t1−t0)/(t2−t0)×100, where the cut-off time (t2) was 180 s.
The latency for the first jumping is considered as the most indicative in the hot-plate test. The area under the time-response curve was calculated by methods described elsewhere (Cicero and Meyer, 1973), to assess the magnitude of antinociception (FIG. 5, see appendix).
The median analgesic dose (ED50) also has been calculated for this parameter.

[1] = target: T1, peripheral opiate receptors, guinea pig ileum (GPI, predominantly μ-type of opioid receptor) (Cavia porcellus, UniProt A0ACM8Q262); conditions: GPI assay
T1 construct: other: guinea pig ileum longitudinal muscle, electrical stimulation; GPI Relative potency, %; other: GPI assay
T1 sequence (A0ACM8Q262 1-400): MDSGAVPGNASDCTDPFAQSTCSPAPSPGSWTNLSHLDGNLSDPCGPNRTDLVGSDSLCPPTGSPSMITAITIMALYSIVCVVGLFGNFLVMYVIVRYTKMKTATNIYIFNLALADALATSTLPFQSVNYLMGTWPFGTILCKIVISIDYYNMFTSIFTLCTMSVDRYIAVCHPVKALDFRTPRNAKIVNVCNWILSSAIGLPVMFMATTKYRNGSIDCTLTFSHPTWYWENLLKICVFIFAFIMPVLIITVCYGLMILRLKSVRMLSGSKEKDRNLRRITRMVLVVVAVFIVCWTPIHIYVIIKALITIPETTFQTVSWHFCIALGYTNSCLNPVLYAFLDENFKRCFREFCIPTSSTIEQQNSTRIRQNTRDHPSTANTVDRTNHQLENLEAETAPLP

[2] = system: peripheral opiate receptors, guinea pig ileum (GPI, predominantly μ-type of opioid receptor); conditions: ratio of relative potencies GPI to MVD
outbreed male mice = test: Analgesic activity in vivo, tail pinch method; parameters: species or system mouse
Procedure: Analgesic activity of enkephalin analogues was determined by a “tail pinch” method [Ueda H.; Amano H.; Shiomi H.; Takagi H. (1979). Eur. J. Pharmacol., 56, 265-268]. […] Ten mice were used in each experiment.
The studied substances were dissolved in sterile physiological solution and injected in J-shaped needles into the brain of conscious mice at a dose of 10 μl. Control animals received 10 μl of sterile physiological solution. Intravenous administration was into the tail vein. Analgesic activity was tested by pinching the mouse tail with an artery clip with 200 g pressure. The mice who bit the clip within one second after application of pinching were selected for assays. Analgesic activity was defined as latency on the biting response greater than 6 sec. The analgesic tests were performed 5, 15, 30, 60 and 90 min after administration and then every 30 min until the analgesic reaction was stopped. The analgesic activity of the peptides was expressed as a percentage of mice not showing the biting response.

[3] = system: rats with ligature of coronary arteries; assay type: in vivo, rat; parameters: myocardial necrosis size: unit not given here; conditions: for CPK / HF-CPK / Lactate: blood; for Lethality %: rats with sharp myocardial ischemia
[4] = system: peripheral opiate receptors, mouse vas deferens (MVD); test: MVD bioassay, suppression of electrically induced contraction
Procedure: Brit. J. Pharmacol., 35, 10-28]. The longitudinal muscle of ileum from guinea pig of any sex (weight 350-500 g) was carefully separated from underlying circular muscle and placed into a small bath with Krebs solution at 36° C.
The solution was constantly aerated. A constant load of 0.2 g was applied to the tissue. The tissue was stimulated by means of the ring platinum electrodes by single impulses of […] duration with 0.1 Hz frequency. […] Vas deferens of mice (weight 27 to 30 g) were placed into a bath with modified Krebs solution (not containing magnesium sulphate) at 31° C. The substances under study were dissolved in distilled water. The inhibiting activity of the compounds was determined by accumulating doses, adding increasing concentrations of the compounds without washing. The activity of the preparations was expressed as IC50 in nmol/l. The results obtained in 8-10 tests were statistically processed using Student's criterion.

[5] = system: BALB mice under normobaric hypoxic hypoxia; test: Antihypoxic action, lifetime of mice under normobaric hypoxic hypoxia; assay type: in vivo, mouse
Procedure: Antihypoxic action of the new enkephalin analogue (1) was determined by the measurement of lifetime duration in mice under the normobaric hypoxic hypoxia conditions.
The experiments were conducted on BALB-bread mice weighing 20 to 22 g. The normobaric hypoxic hypoxia conditions were modelled by placing the animals in hermetic camera, containing Ca(OH)2 to absorb the excess of carbon dioxide. The substances studied were injected intraperitoneally 1 min. before the placing of animals in the hermetic camera. The peptides were used at doses 1.0 mg/kg. […] Sodium oxybutyrate at highest therapeutic dose was used as comparative compound. The lifetime was estimated as the time when the animals stopped making breathing movements.

[6] = 6 hours after ligature, compound (1) 0.05 mg/kg
[7] = 24 hours after ligature, compound (1) 0.05 mg/kg, nitroglycerine highest therapeutic dose

With CC(=O)NCCCC(NC(=O)C(N)Cc1ccc(O)cc1)C(=O)NCC(=O)NC(Cc1ccc([N+](=O)[O-])cc1)C(N)=O [Peptide 1, Tyr-(N^δ—Ac)-D-Orn-Gly-Phe(p-NO2)—NH2] the “ED50 (jump latency)” value (CD-1 male mice; intravenous administration, time point of 15 min) was 1.27 mg/kg, the “analgesic activity exceeding that of morphine” value (CD-1 male mice; intravenous, from ED50 at 15 min) was 2 times and the “activity compared with morphine” value [1] was “more active than morphine by one order”. For the same compound, the GPIrel/MVDrel [2] was 46, the “Duration of analgesic effect at ED60-80” value (outbreed male mice; intracisternal administration) was 120 min and the “ED50 nmol/animal (dose interval)” value (outbreed male mice; intracisternal administration) was 0.02 (0.01-0.04) nmol/animal. For the same compound, the “Relative analgesic activity morphine = 1” value (outbreed male mice; intracisternal administration) was 60, the “Duration of analgesic effect at ED60-80” value (outbreed male mice; intravenous administration) was 60 min and the “ED50 μmol/kg (dose interval)” value (outbreed male mice; intravenous administration) was 8.0 (0-25) μmol/kg. The “Relative analgesic activity morphine = 1” value (outbreed male mice; intravenous administration) was 2 and 2.2, the myocardial necrosis size ([3]; 0.05 mg/kg i.p. 30 min after coronary occlusion, observation time 6 hours) was 40.70 ± 1.52 and the myocardial necrosis size ([3]; 0.05 mg/kg i.p. 30 min after coronary occlusion, observation time 12 hours) was 47.51 ± 1.63. The myocardial necrosis size ([3]; 0.5 mg/kg i.p. 30 min after coronary occlusion, observation time 6 hours) was 40.05 ± 1.93, the myocardial necrosis size ([3]; 0.5 mg/kg i.p. 30 min after coronary occlusion, observation time 12 hours) was 46.64 ± 2.20 and the Glycogen of heart [3, 6] was 1.00 ± 0.12 g/kg. The Glycogen of liver [3, 6] was 6.98 ± 1.02 g/kg, the Glycogen of heart ([3]; 24 hours after ligature, compound (1) 0.05 mg/kg) was 1.11 ± 0.17 g/kg and the CPK [3, 6] was 93.5 ± 5.3 units/l. It also gave an HF-CPK [3, 6] of 15.3 ± 0.7 units/l, a Lactate [3, 6] of 1.61 ± 0.45 mmol/L and a CPK [3, 7] of 86.6 ± 4.9 units/l. For the same compound, the HF-CPK [3, 7] was 12.3 ± 0.7 units/l, the Lactate [3, 7] was 1.70 ± 0.09 mmol/L and the Lethality % ([3]; 0.05 mg/kg) was 33%. For the same compound, the Lethality % ([3]; 0.5 mg/kg) was 27%, the “MVD Relative potency, %” value ([4]; [Leu^5]-enkephalin = 100) was 52% and the IC50 ([4]; mouse vas deferens, electrical stimulation) was 38.5 ± 20.1 nM. The “lifetime longer than in the control experiments” value ([5]; 1.0 mg/kg i.p.) was 57% and the Duration of life ([5]; 1.0 mg/kg i.p. 1 min before hermetic chamber) was 16.9 ± 1.1 min.
